The text below walks through data of PubChem BioAssay (NCI).

Some test systems named below: COLO 205 colon; KM12 colon; OVCAR-4 ovarian; MCF7 breast; SF-295 CNS; T-47D breast; CCRF-CEM leukemia; OVCAR-5 ovarian; SK-MEL-28 melanoma; SF-539 CNS.
Common to all, as to assay: growth of human tumour cells (NCI), 48 h

SMILES strings stand for the structures.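 Cells were grown in 96-well plates and exposed to each compound for 48 hours at five concentrations; endpoints were interpolated linearly between bracketing concentrations, or set to the highest concentration if not reached. The concentration for 50% growth inhibition is given as GI50. TGI is the concentration that stops growth completely.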

As to `Nc1nc(F)nc2c1ncn2C1OC(COP(=O)(O)O)C(O)C1O` (centres undefined), the TGI with COLO 205 colon worked out at 610 µM; in the assay with KM12 colon, 900 µM; in the assay with OVCAR-4 ovarian, 987 µM; in the assay on MCF7 breast, 717 µM; in the assay on SF-295 CNS it was 917 µM; in the assay on T-47D breast it was 489 µM. In addition, the TGI is 202 µM in the assay with CCRF-CEM leukemia, 617 µM in the assay on OVCAR-5 ovarian, 755 µM with SK-MEL-28 melanoma and 859 µM with SF-539 CNS.

In the case of `CC(=O)O[C@H]1C(=O)[C@@]2(C)[C@H]([C@H](OC(=O)c3ccccc3)[C@]3(O)C[C@H](OC(=O)[C@H](OC(=O)CCC(=O)OC4CCC(S/N=C(N)/N=C(\N)N(C)C)CC4)[C@@H](NC(=O)c4ccccc4)c4ccccc4)C(C)=C1C3(C)C)[C@]1(OC(C)=O)CO[C@@H]1C[C@@H]2O` (some centres undefined), the GI50 in the assay with COLO 205 colon was 0.00952 µM; in the assay with KM12 colon it was 0.0106 µM; in the assay with OVCAR-4 ovarian it was 0.0444 µM; in the assay on MCF7 breast it was below 0.005 µM; with SF-295 CNS, 0.0116 µM; with T-47D breast it was 0.0139 µM. For the same compound, the GI50 is 0.0155 µM with CCRF-CEM leukemia, 0.0272 µM in the assay with OVCAR-5 ovarian, 8.57 µM in the assay on SK-MEL-28 melanoma and 0.00847 µM in the assay on SF-539 CNS. Further, the TGI in the assay on COLO 205 colon is 0.0406 µM; in the assay with KM12 colon, above 50 µM; in the assay on OVCAR-4 ovarian, above 50 µM; in the assay on MCF7 breast it was above 50 µM; in the assay on SF-295 CNS, 0.0818 µM; with T-47D breast it was above 50 µM. Also, the TGI with CCRF-CEM leukemia was above 50 µM; in the assay on OVCAR-5 ovarian, above 50 µM; in the assay on SK-MEL-28 melanoma, above 50 µM; in the assay on SF-539 CNS, 0.0255 µM.

For `O=[N+]([O-])c1ccccc1/C=C/C=C1c2ccccc2-c2ccccc21`, the GI50 in the assay with COLO 205 colon was above 100 µM; in the assay on KM12 colon it was above 100 µM; in the assay with OVCAR-4 ovarian it was above 100 µM; with MCF7 breast, 31.5 µM; in the assay on SF-295 CNS, above 100 µM; with T-47D breast, above 100 µM. Further, the GI50 in the assay with CCRF-CEM leukemia, in the assay with OVCAR-5 ovarian, with SK-MEL-28 melanoma and with SF-539 CNS was above 100 µM each time. Besides, the TGI in the assay on COLO 205 colon, in the assay on KM12 colon, in the assay on OVCAR-4 ovarian, in the assay with MCF7 breast, in the assay on SF-295 CNS and in the assay with T-47D breast was above 100 µM in each case. Moreover, the TGI in the assay with CCRF-CEM leukemia, in the assay on OVCAR-5 ovarian, with SK-MEL-28 melanoma and in the assay with SF-539 CNS was above 100 µM throughout.

Turning to `C[C@@H](Oc1cc(-c2cnn(C3CC4(CCNCC4)C3)c2)cnc1N)c1c(F)ccc(Cl)c1Cl`, the GI50 was 0.293 µM in the assay with COLO 205 colon; 0.0399 µM with KM12 colon; 1.79 µM in the assay on OVCAR-4 ovarian; 0.383 µM in the assay on MCF7 breast; 0.612 µM with SF-295 CNS; 1.58 µM with T-47D breast. The GI50 in the assay on CCRF-CEM leukemia is 1.31 µM; in the assay on OVCAR-5 ovarian it was 1.39 µM; in the assay with SK-MEL-28 melanoma, 1.55 µM; in the assay with SF-539 CNS, 1.51 µM. Further, the TGI with COLO 205 colon amounted to 0.864 µM; with KM12 colon, 1.39 µM; in the assay on OVCAR-4 ovarian it was 6.53 µM; in the assay on MCF7 breast, 1.88 µM; in the assay on SF-295 CNS, 2.43 µM; with T-47D breast, 3.24 µM. Also, the TGI in the assay on CCRF-CEM leukemia amounted to 6.31 µM; with OVCAR-5 ovarian, 6.65 µM; in the assay on SK-MEL-28 melanoma, 3.2 µM; in the assay with SF-539 CNS, 2.96 µM.

As for `O=C(CSc1nc2sc3c(c2c(=O)n1-c1ccccc1)CCCCC3)N/N=C/c1ccc(F)cc1`, the GI50 was 1.58 µM in the assay on COLO 205 colon; 6 µM with KM12 colon; 0.671 µM in the assay with OVCAR-4 ovarian; 2.91 µM with MCF7 breast; 3.8 µM with SF-295 CNS; 2.34 µM in the assay with T-47D breast. In addition, the GI50 in the assay on CCRF-CEM leukemia was 3.16 µM; in the assay on OVCAR-5 ovarian, 3.76 µM; in the assay on SK-MEL-28 melanoma, 3.24 µM; with SF-539 CNS, 1.85 µM. Also, the TGI in the assay on COLO 205 colon is 3.64 µM; with KM12 colon, above 100 µM; in the assay on OVCAR-4 ovarian, 2.46 µM; with MCF7 breast, 21 µM; in the assay on SF-295 CNS it was 14.7 µM; with T-47D breast it was 24.6 µM. For the same compound, the TGI in the assay on CCRF-CEM leukemia was above 100 µM; in the assay with OVCAR-5 ovarian it was 20.6 µM; in the assay with SK-MEL-28 melanoma, 13.1 µM; with SF-539 CNS, 3.53 µM.

On to `C[C@]12CC[C@H]3[C@@H](CC=C4C[C@@H](O)CC[C@@]43C)[C@@H]1C/C(=C\c1cccc(OCCCn3ccnc3)c1)[C@@H]2O`, for which the GI50 with COLO 205 colon was 8.33 µM; in the assay on KM12 colon, 11.9 µM; with OVCAR-4 ovarian, 12.8 µM; in the assay on MCF7 breast it was 14.5 µM; with SF-295 CNS it was 6.8 µM; with T-47D breast, 6.4 µM. Also, the GI50 in the assay on CCRF-CEM leukemia is 13 µM; in the assay with OVCAR-5 ovarian, 17.2 µM; in the assay on SK-MEL-28 melanoma, 12.2 µM; in the assay with SF-539 CNS it was 8.01 µM. Further, the TGI with COLO 205 colon is 27 µM; in the assay on KM12 colon it was 28.7 µM; with OVCAR-4 ovarian, 32.7 µM; in the assay on MCF7 breast, 34.2 µM; in the assay on SF-295 CNS, 26.4 µM; with T-47D breast, 30.1 µM. Further, the TGI with CCRF-CEM leukemia came to 68.7 µM; in the assay on OVCAR-5 ovarian it was 32.9 µM; in the assay with SK-MEL-28 melanoma it was 29.1 µM; in the assay with SF-539 CNS it was 23.7 µM.

For `OCC1OC(O)C(N=Cc2ccc3c(c2)OCO3)C(O)C1O` (centres undefined), the TGI with COLO 205 colon, with KM12 colon, in the assay with OVCAR-4 ovarian, in the assay with MCF7 breast, with SF-295 CNS and in the assay with T-47D breast was above 100 µM each time. Besides, the TGI with CCRF-CEM leukemia is above 40.1 µM; with OVCAR-5 ovarian, above 100 µM; in the assay on SK-MEL-28 melanoma, above 100 µM; in the assay with SF-539 CNS, above 100 µM.

As to `CNC(=O)c1ccc(Nc2nc(OC3CCCC3)c3c(-c4ccc5nc(C)oc5c4)c[nH]c3n2)c(OC)c1`, the GI50 in the assay on COLO 205 colon was 0.208 µM; in the assay on KM12 colon, 9.47 µM; with OVCAR-4 ovarian, 5.59 µM; with MCF7 breast it was 0.252 µM; with T-47D breast, 0.907 µM; with CCRF-CEM leukemia, 0.124 µM. For the same compound, the GI50 in the assay with OVCAR-5 ovarian is 64.2 µM; with SK-MEL-28 melanoma, 41.4 µM; in the assay on SF-539 CNS, 0.332 µM. For the same compound, the TGI with COLO 205 colon, with KM12 colon, in the assay with OVCAR-4 ovarian, in the assay on MCF7 breast, in the assay with SF-295 CNS and with T-47D breast was above 100 µM in each case. Besides, the TGI in the assay on CCRF-CEM leukemia is above 44.4 µM; in the assay on OVCAR-5 ovarian, above 100 µM; in the assay with SK-MEL-28 melanoma, above 100 µM; in the assay with SF-539 CNS, above 100 µM.
